Laboratory results reported in ChEMBL document CHEMBL3885881, “DrugMatrix”.

Organism: Rattus norvegicus
Test: DrugMatrix - Regimen: Daily Repeat
Assay type: toxicity, organism-based, Sprague-Dawley
Design: regimen Daily Repeat, gender Male, age 6-8 weeks
Details: in vivo, iv, vehicle 100 % SALINE; for ABSOLUTE BASOPHIL / ABSOLUTE EOSINOPHIL / ABSOLUTE LYMPHOCYTE / ABSOLUTE MONOCYTE / ABSOLUTE SEGMENTED NEUTROPHIL / BASOPHIL / EOSINOPHIL / ERYTHROCYTE COUNT / HEMATOCRIT / HEMOGLOBIN / LEUKOCYTE COUNT / LYMPHOCYTE / MEAN CORPUSCULAR HEMOGLOBIN / MEAN CORPUSCULAR HEMOGLOBIN CONCENTRATION / MEAN CORPUSCULAR VOLUME / MONOCYTE / NEUTROPHIL / NUCLEATED RED BLOOD CELLS / PLATELET COUNT: tissue Blood; for ALANINE AMINOTRANSFERASE / ALBUMIN / ALKALINE PHOSPHATASE / ASPARTATE AMINOTRANSFERASE / BLOOD UREA NITROGEN / CARBON DIOXIDE / CHLORIDE / CHOLESTEROL / CREATINE PHOSPHOKINASE / CREATININE / GLUCOSE / LACTATE DEHYDROGENASE / LIPASE / PHOSPHORUS / POTASSIUM / SODIUM / TOTAL BILIRUBIN / TOTAL PROTEIN / URIC ACID: tissue Plasma
[1] = 0 mg/kg, 72 h, dose level Control, time 3 day
[2] = 0 mg/kg, 120 h, dose level Control, time 5 day
[3] = […], 72 h, dose 0.0033 mg/Kg, dose level Low, time 3 day
[4] = […], 72 h, dose 0.033 mg/Kg, dose level High, time 3 day

With `COc1cc2c3cc1Oc1cc(ccc1O)C[C@@H]1c4c(cc(OC)c(O)c4Oc4ccc(cc4)C[C@@H]3N(C)CC2)CC[N+]1(C)C.[Cl-]` the “ABSOLUTE BASOPHIL” value [1] was 0 CELLS/uL, the “ABSOLUTE EOSINOPHIL” value [1] was 0 CELLS/uL and the “ABSOLUTE LYMPHOCYTE” value [1] was 11636.83 CELLS/uL. The “ABSOLUTE MONOCYTE” value [1] was 159 CELLS/uL, the “ABSOLUTE SEGMENTED NEUTROPHIL” value [1] was 1170.83 CELLS/uL and the BASOPHIL [1] was 0%. The EOSINOPHIL [1] was 0%, the “ERYTHROCYTE COUNT” value [1] was 5.46 x10E6/uL and the HEMATOCRIT [1] was 34.05%. For the same molecule, the HEMOGLOBIN [1] was 13.58 G/DL, the “LEUKOCYTE COUNT” value [1] was 12.97 x10E3/uL and the LYMPHOCYTE [1] was 89.67%. The “MEAN CORPUSCULAR HEMOGLOBIN” value [1] was 24.87 pg, the “MEAN CORPUSCULAR HEMOGLOBIN CONCENTRATION” value [1] was 39.9 G/DL and the “MEAN CORPUSCULAR VOLUME” value [1] was 62.3 fL. For the same molecule, the MONOCYTE [1] was 1.33%, the NEUTROPHIL [1] was 9% and the “NUCLEATED RED BLOOD CELLS” value [1] was 0.17 /100WBC. The “PLATELET COUNT” value [1] was 824 x10E3/uL, the “ALANINE AMINOTRANSFERASE” value [1] was 64.83 u/L and the ALBUMIN [1] was 4.08 G/DL. The “ALKALINE PHOSPHATASE” value [1] was 421 u/L, the “ASPARTATE AMINOTRANSFERASE” value [1] was 116.83 u/L and the “BLOOD UREA NITROGEN” value [1] was 16.83 mg/dL. The “CARBON DIOXIDE” value [1] was 28 mmol/L, the CHLORIDE [1] was 101.33 MEQ/L and the CHOLESTEROL [1] was 74.17 mg/dL. The “CREATINE PHOSPHOKINASE” value [1] was 748.5 u/L, the CREATININE [1] was 0.22 mg/dL and the GLUCOSE [1] was 152.83 mg/dL. The “LACTATE DEHYDROGENASE” value [1] was 578.5 u/L, the LIPASE [1] was 9.83 u/L and the PHOSPHORUS [1] was 11.63 mg/dL. The POTASSIUM [1] was 5.93 MEQ/L, the SODIUM [1] was 142.1 MEQ/L and the “TOTAL BILIRUBIN” value [1] was 0.17 mg/dL. The “TOTAL PROTEIN” value [1] was 5.77 G/DL, the “URIC ACID” value [1] was 1.43 mg/dL and the “ABSOLUTE BASOPHIL” value [2] was 0 CELLS/uL. For the same molecule, the “ABSOLUTE EOSINOPHIL” value [2] was 159.17 CELLS/uL, the “ABSOLUTE LYMPHOCYTE” value [2] was 12267.5 CELLS/uL and the “ABSOLUTE MONOCYTE” value [2] was 30 CELLS/uL. For the same molecule, the “ABSOLUTE SEGMENTED NEUTROPHIL” value [2] was 1160 CELLS/uL, the BASOPHIL [2] was 0% and the EOSINOPHIL [2] was 1.17%. The “ERYTHROCYTE COUNT” value [2] was 5.52 x10E6/uL, the HEMATOCRIT [2] was 34.3% and the HEMOGLOBIN [2] was 13.73 G/DL. For the same molecule, the “LEUKOCYTE COUNT” value [2] was 13.62 x10E3/uL, the LYMPHOCYTE [2] was 90.5% and the “MEAN CORPUSCULAR HEMOGLOBIN” value [2] was 24.92 pg. For the same molecule, the “MEAN CORPUSCULAR HEMOGLOBIN CONCENTRATION” value [2] was 40.07 G/DL, the “MEAN CORPUSCULAR VOLUME” value [2] was 62.17 fL and the MONOCYTE [2] was 0.17%. For the same molecule, the NEUTROPHIL [2] was 8.17%, the “NUCLEATED RED BLOOD CELLS” value [2] was 0.17 /100WBC and the “PLATELET COUNT” value [2] was 1261.83 x10E3/uL. The “ALANINE AMINOTRANSFERASE” value [2] was 58.67 u/L, the ALBUMIN [2] was 4.15 G/DL and the “ALKALINE PHOSPHATASE” value [2] was 364.67 u/L. For the same molecule, the “ASPARTATE AMINOTRANSFERASE” value [2] was 105.33 u/L, the “BLOOD UREA NITROGEN” value [2] was 17.67 mg/dL and the “CARBON DIOXIDE” value [2] was 26.5 mmol/L. The CHLORIDE [2] was 101.67 MEQ/L, the CHOLESTEROL [2] was 63 mg/dL and the “CREATINE PHOSPHOKINASE” value [2] was 480.67 u/L. For the same molecule, the CREATININE [2] was 0.17 mg/dL, the GLUCOSE [2] was 144.67 mg/dL and the “LACTATE DEHYDROGENASE” value [2] was 540.33 u/L. It also gave an LIPASE [2] of 10.33 u/L, a PHOSPHORUS [2] of 11.52 mg/dL and a POTASSIUM [2] of 6.12 MEQ/L. For the same molecule, the SODIUM [2] was 142.45 MEQ/L, the “TOTAL BILIRUBIN” value [2] was 0.18 mg/dL and the “TOTAL PROTEIN” value [2] was 5.73 G/DL. For the same molecule, the “URIC ACID” value [2] was 1.48 mg/dL, the “ABSOLUTE BASOPHIL” value [3] was 0 CELLS/uL and the “ABSOLUTE EOSINOPHIL” value [3] was 38.67 CELLS/uL. For the same molecule, the “ABSOLUTE LYMPHOCYTE” value [3] was 9113.67 CELLS/uL, the “ABSOLUTE MONOCYTE” value [3] was 101 CELLS/uL and the “ABSOLUTE SEGMENTED NEUTROPHIL” value [3] was 846.67 CELLS/uL. The BASOPHIL [3] was 0%, the EOSINOPHIL [3] was 0.33% and the “ERYTHROCYTE COUNT” value [3] was 5.25 x10E6/uL. The HEMATOCRIT [3] was 31.97%, the HEMOGLOBIN [3] was 12.93 G/DL and the “LEUKOCYTE COUNT” value [3] was 10.1 x10E3/uL. The LYMPHOCYTE [3] was 90.33%, the “MEAN CORPUSCULAR HEMOGLOBIN” value [3] was 24.73 pg and the “MEAN CORPUSCULAR HEMOGLOBIN CONCENTRATION” value [3] was 40.53 G/DL. The “MEAN CORPUSCULAR VOLUME” value [3] was 60.97 fL, the MONOCYTE [3] was 1% and the NEUTROPHIL [3] was 8.33%. The “NUCLEATED RED BLOOD CELLS” value [3] was 0 /100WBC, the “PLATELET COUNT” value [3] was 798.67 x10E3/uL and the “ABSOLUTE BASOPHIL” value [4] was 0 CELLS/uL. The “ABSOLUTE EOSINOPHIL” value [4] was 61.33 CELLS/uL, the “ABSOLUTE LYMPHOCYTE” value [4] was 18023 CELLS/uL and the “ABSOLUTE MONOCYTE” value [4] was 62 CELLS/uL. The “ABSOLUTE SEGMENTED NEUTROPHIL” value [4] was 687 CELLS/uL, the BASOPHIL [4] was 0% and the EOSINOPHIL [4] was 0.33%. The “ERYTHROCYTE COUNT” value [4] was 5 x10E6/uL, the HEMATOCRIT [4] was 31.67% and the HEMOGLOBIN [4] was 13 G/DL. For the same molecule, the “LEUKOCYTE COUNT” value [4] was 18.83 x10E3/uL, the LYMPHOCYTE [4] was 95.67% and the “MEAN CORPUSCULAR HEMOGLOBIN” value [4] was 26 pg. The “MEAN CORPUSCULAR HEMOGLOBIN CONCENTRATION” value [4] was 41.03 G/DL, the “MEAN CORPUSCULAR VOLUME” value [4] was 63.33 fL and the MONOCYTE [4] was 0.33%. For the same molecule, the NEUTROPHIL [4] was 3.67%, the “NUCLEATED RED BLOOD CELLS” value [4] was 0 /100WBC and the “PLATELET COUNT” value [4] was 1148.67 x10E3/uL.
